According to patent US10780090B2, “Heteroaryl compounds useful as inhibitors of SUMO activating enzyme” (Millennium Pharmaceuticals, Inc., priority 2014, dated 2020):
Read-outs that look alike come from different tables or passages of the source.

Biological target: recombinant human SAE enzyme (Homo sapiens (Human), UniProt Q9UBT2)
Experiment: SAE HTRF enzyme assay
Assay type: biochemical
Details: for inhibition at 0.111 µM: read-out: Percent Inhibition
Outline: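 0.11 nM SAE incubated with 0.5 μM ATP, 0.01 μM Ubc9-GST and 0.125 μM Sumo-Flag in HEPES pH 7.5, MgCl2, GSH, BSA, ±inhibitor, 105 min at 24° C. EDTA stop; Eu-cryptate anti-Flag/XL-APC anti-GST HTRF read after 2 h. Values given as single-concentration % inhibition or IC50.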

[1] = SAE inhibition at compound concentration 0.111 μM
[2] = SAE inhibition, class symbols, legend in nM

Sequence of recombinant human SAE enzyme (Q9UBT2 whole entry): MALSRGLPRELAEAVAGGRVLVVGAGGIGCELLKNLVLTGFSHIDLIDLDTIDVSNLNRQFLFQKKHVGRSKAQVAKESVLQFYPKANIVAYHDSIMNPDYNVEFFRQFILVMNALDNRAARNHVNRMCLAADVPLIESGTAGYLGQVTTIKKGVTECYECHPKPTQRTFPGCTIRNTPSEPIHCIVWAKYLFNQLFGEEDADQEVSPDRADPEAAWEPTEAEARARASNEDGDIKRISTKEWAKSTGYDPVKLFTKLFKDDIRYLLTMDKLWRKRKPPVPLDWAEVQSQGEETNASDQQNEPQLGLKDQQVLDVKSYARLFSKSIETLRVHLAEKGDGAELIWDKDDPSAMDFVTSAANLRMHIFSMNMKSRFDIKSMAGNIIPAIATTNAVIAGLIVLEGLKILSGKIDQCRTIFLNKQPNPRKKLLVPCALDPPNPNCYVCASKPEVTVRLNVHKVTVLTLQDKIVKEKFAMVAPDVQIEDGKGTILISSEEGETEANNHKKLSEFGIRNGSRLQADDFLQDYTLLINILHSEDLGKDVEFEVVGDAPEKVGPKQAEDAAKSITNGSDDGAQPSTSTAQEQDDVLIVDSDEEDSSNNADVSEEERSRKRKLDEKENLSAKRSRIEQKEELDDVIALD
Sequence of recombinant human SAE enzyme (Q9UBE0 whole entry partner): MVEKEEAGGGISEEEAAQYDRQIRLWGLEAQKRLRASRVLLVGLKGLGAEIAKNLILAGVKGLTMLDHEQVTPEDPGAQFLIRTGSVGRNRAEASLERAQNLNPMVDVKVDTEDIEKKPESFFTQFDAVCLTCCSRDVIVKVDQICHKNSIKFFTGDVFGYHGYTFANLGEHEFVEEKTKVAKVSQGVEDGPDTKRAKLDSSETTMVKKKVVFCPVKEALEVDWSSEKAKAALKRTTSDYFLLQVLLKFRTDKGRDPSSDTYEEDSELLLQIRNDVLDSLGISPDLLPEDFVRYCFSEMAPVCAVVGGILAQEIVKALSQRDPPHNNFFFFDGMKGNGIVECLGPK

| Compound | inhibition at 0.111 µM (Concentration 0.111 μM) [%] | IC50 (class symbols A/B/C) [nM] | Percent Inhibition (Concentration 0.111 μM) | further results |
| --- | --- | --- | --- | --- |
| Cc1cccc(Cc2csc(C(=O)c3cncnc3N[C@@H]3C[C@H](COS(N)(=O)=O)[C@@H](O)C3)c2)c1 [I-60, {(1R,2S,4R)-2-hydroxy-4-[(5-{[4-(3-methylbenzyl)-2-thienyl]carbonyl}pyrimidin-4-yl)amino]cyclopentyl}methyl sulfamate] | 99 | – | – | – |
| N#Cc1sc(C(=O)c2cncnc2N[C@@H]2C[C@H](COS(N)(=O)=O)[C@@H](O)C2)cc1[C@@H]1OCCc2ccccc21 (mixture of isomers) [I-324, [(1R,2S,4R)-4-{[5-({5-cyano-4-[(1R)-3,4-dihydro-1H-isochromen-1-yl]-2-thienyl}carbonyl)pyrimidin-4-yl]amino}-2-hydroxycyclopentyl]methyl sulfamate and [(1R,2S,4R)-4-{[5-({5-cyano-4-[(1S)-3,4-dihydro-1H-isochromen-1-yl]-2-thienyl}carbonyl)pyrimidin-4-yl]amino}-2-hydroxycyclopentyl]methyl sulfamate] | – | – | – | Percent Inhibition [1]: 91%; IC50 [2]: 10 to 100 nM |
| Cc1sc(C(=O)c2cncnc2N[C@@H]2C[C@H](COS(N)(=O)=O)[C@@H](O)C2)cc1[C@@H]1OCCc2ccccc21 [I-256b, [(1R,2S,4R)-4-{[5-({4-[(1R)-3,4-Dihydro-1H-isochromen-1-yl]-5-methyl-2-thienyl}carbonyl)pyrimidin-4-yl]amino}-2-hydroxycyclopentyl]methyl sulfamate] | 99 | < 10 | – | – |
| C[C@](O)(c1ccccc1)c1coc(C(=O)c2cncnc2N[C@@H]2C[C@H](COS(N)(=O)=O)[C@@H](O)C2)c1 (single isomer, unassigned) [I-58b, {(1R,2S,4R)-2-hydroxy-4-[(5-{4-[(1S)-1-hydroxy-1-phenylethyl]-2-furoyl}pyrimidin-4-yl)amino]cyclopentyl}methyl sulfamate or {(1R,2S,4R)-2-hydroxy-4-[(5-{4-[(1R)-1-hydroxy-1-phenylethyl]-2-furoyl}pyrimidin-4-yl)amino]cyclopentyl}methyl sulfamate] | – | < 10 | 100 | – |
| NS(=O)(=O)OC[C@H]1C[C@@H](Nc2ncncc2C(=O)c2cc(Sc3cccc(C(F)(F)F)c3)c(Cl)s2)C[C@@H]1O [I-189, [(1R,2S,4R)-4-({5-[(5-chloro-4-{[3-(trifluoromethyl)phenyl]sulfanyl}-2-thienyl)carbonyl]pyrimidin-4-yl}amino)-2-hydroxycyclopentyl]methyl sulfamate] | 78 | 10 to 100 | – | – |
| Cc1sc(C(=O)c2cncnc2N[C@@H]2C[C@H](COS(N)(=O)=O)[C@@H](O)C2)cc1[C@@H]1OCCc2ccc(C(F)(F)F)cc21 (single isomer, unassigned) [I-258b, [(1R,2S,4R)-2-hydroxy-4-{[5-({5-methyl-4-[(1R)-7-(trifluoromethyl)-3,4-dihydro-1H-isochromen-1-yl]-2-thienyl}carbonyl)pyrimidin-4-yl]amino}cyclopentyl]methyl sulfamate or [(1R,2S,4R)-2-hydroxy-4-{[5-({5-methyl-4-[(1S)-7-(trifluoromethyl)-3,4-dihydro-1H-isochromen-1-yl]-2-thienyl}carbonyl)pyrimidin-4-yl]amino}cyclopentyl]methyl sulfamate] | – | 10 to 100 | 72 | – |
| NS(=O)(=O)OC[C@H]1C[C@@H](Nc2ncncc2C(=O)c2cc(CN3CCCC(F)(F)C3)cs2)C[C@@H]1O [I-224, [(1R,2S,4R)-4-{[5-({4-[(3,3-difluoropiperidin-1-yl)methyl]-2-thienyl}carbonyl)pyrimidin-4-yl]amino}-2-hydroxycyclopentyl]methyl sulfamate] | 31 | 100 to 1000 | – | – |
| NS(=O)(=O)OC[C@H]1C[C@@H](Nc2ncncc2C(=O)c2cc([C@H]3NCCc4ccccc43)c(Cl)s2)C[C@@H]1O (single isomer, unassigned) [I-279b, [(1R,2S,4R)-4-{[5-({5-chloro-4-[(1S)-1,2,3,4-tetrahydroisoquinolin-1-yl]-2-thienyl}carbonyl)pyrimidin-4-yl]amino}-2-hydroxycyclopentyl]methyl sulfamate or [(1R,2S,4R)-4-{[5-({5-chloro-4-[(1R)-1,2,3,4-tetrahydroisoquinolin-1-yl]-2-thienyl}carbonyl)pyrimidin-4-yl]amino}-2-hydroxycyclopentyl]methyl sulfamate] | – | 10 to 100 | 84 | – |
| Cc1sc(C(=O)c2cncnc2N[C@@H]2C[C@H](COS(N)(=O)=O)[C@@H](O)C2)cc1C1OCCc2oc(Cl)cc21 (single isomer, unassigned) [I-298a, [(1R,2S,4R)-4-{[5-({4-[(4R)-2-chloro-6,7-dihydro-4H-furo[3,2-c]pyran-4-yl]-5-methyl-2-thienyl}carbonyl)pyrimidin-4-yl]amino}-2-hydroxycyclopentyl]methyl sulfamate or [(1R,2S,4R)-4-{[5-({4-[(4S)-2-chloro-6,7-dihydro-4H-furo[3,2-c]pyran-4-yl]-5-methyl-2-thienyl}carbonyl)pyrimidin-4-yl]amino}-2-hydroxycyclopentyl]methyl sulfamate] | – | – | – | Percent Inhibition [1]: 34%; IC50 [2]: 100 to 1000 nM |
| Cc1oc(C(=O)c2cncnc2N[C@@H]2C[C@H](COS(N)(=O)=O)[C@@H](O)C2)cc1C1OCCc2ccccc21 (single isomer, unassigned) [I-272b, {(1R,2S,4R)-4-[(5-{4-[(1R)-3,4-dihydro-1H-isochromen-1-yl]-5-methyl-2-furoyl}pyrimidin-4-yl)amino]-2-hydroxycyclopentyl}methyl sulfamate or {(1R,2S,4R)-4-[(5-{4-[(1S)-3,4-dihydro-1H-isochromen-1-yl]-5-methyl-2-furoyl}pyrimidin-4-yl)amino]-2-hydroxycyclopentyl}methyl sulfamate] | – | < 10 | 97 | – |
| CN1CCc2ccc(Cl)cc2[C@@H]1c1cc(C(=O)c2cncnc2N[C@@H]2C[C@H](COS(N)(=O)=O)[C@@H](O)C2)sc1Cl (single isomer, unassigned) [I-311b, [(1R,2S,4R)-4-{[5-({5-chloro-4-[(1R)-7-chloro-2-methyl-1,2,3,4-tetrahydroisoquinolin-1-yl]-2-thienyl}carbonyl)pyrimidin-4-yl]amino}-2-hydroxycyclopentyl]methyl sulfamate or [(1R,2S,4R)-4-{[5-({5-chloro-4-[(1S)-7-chloro-2-methyl-1,2,3,4-tetrahydroisoquinolin-1-yl]-2-thienyl}carbonyl)pyrimidin-4-yl]amino}-2-hydroxycyclopentyl]methyl sulfamate] | – | – | – | Percent Inhibition [1]: 96%; IC50 [2]: < 10 nM |
| COc1ccccc1CCc1csc(C(=O)c2cncnc2N[C@@H]2C[C@H](COS(N)(=O)=O)[C@@H](O)C2)c1 [I-183, [(1R,2S,4R)-2-Hydroxy-4-{[5-({4-[2-(2-methoxyphenyl)ethyl]-2-thienyl}carbonyl)pyrimidin-4-yl]amino}cyclopentyl]methyl sulfamate] | 82 | 10 to 100 | – | – |
| NS(=O)(=O)OC[C@H]1C[C@@H](Nc2ncncc2C(=O)c2cc([C@@H]3OCCc4ccccc43)cs2)C[C@@H]1O.NS(=O)(=O)OC[C@H]1C[C@@H](Nc2ncncc2C(=O)c2cc([C@H]3OCCc4ccccc43)cs2)C[C@@H]1O (mixture of isomers) [I-254, [(1R,2S,4R)-4-{[5-({4-[(1R)-3,4-dihydro-1H-isochromen-1-yl]-2-thienyl}carbonyl)pyrimidin-4-yl]amino}-2-hydroxycyclopentyl]methyl sulfamate and [(1R,2S,4R)-4-{[5-({4-[(1S)-3,4-dihydro-1H-isochromen-1-yl]-2-thienyl}carbonyl)pyrimidin-4-yl]amino}-2-hydroxycyclopentyl]methyl sulfamate] | – | < 10 | 99 | – |
| Cc1sc(C(=O)c2cncnc2N[C@@H]2C[C@H](COS(N)(=O)=O)[C@@H](OC(=O)CN)C2)cc1[C@@H]1OCCc2ccc(Cl)cc21 [I-330, (1S,2R,4R)-4-{[5-({4-[(1R)-7-chloro-3,4-dihydro-1H-isochromen-1-yl]-5-methyl-2-thienyl}carbonyl)pyrimidin-4-yl]amino}-2-[(sulfamoyloxy)methyl]cyclopentyl aminoacetate] | – | – | – | inhibition at 0.111 µM [1]: 34%; IC50 [2]: 100 to 1000 nM |
| COc1cccc(Cc2csc(C(=O)c3cncnc3N[C@@H]3C[C@H](COS(N)(=O)=O)[C@@H](O)C3)c2)c1 [I-123, {(1R,2S,4R)-2-hydroxy-4-[(5-{[4-(3-methoxybenzyl)-2-thienyl]carbonyl}pyrimidin-4-yl)amino]cyclopentyl}methyl sulfamate] | 96 | < 10 | – | – |
| NS(=O)(=O)OC[C@H]1C[C@@H](Nc2ncncc2C(=O)c2cc([C@@]3(C4=CCCCC4)CCCO3)cs2)C[C@@H]1O (mixture of isomers) [I-116, [(1R,2S,4R)-4-{[5-({4-[(2S)-2-(cyclohex-1-en-1-yl)tetrahydrofuran-2-yl]-2-thienyl}carbonyl)pyrimidin-4-yl]amino}-2-hydroxycyclopentyl]methyl sulfamate and [(1R,2S,4R)-4-{[5-({4-[(2R)-2-(cyclohex-1-en-1-yl)tetrahydrofuran-2-yl]-2-thienyl}carbonyl)pyrimidin-4-yl]amino}-2-hydroxycyclopentyl]methyl sulfamate] | – | < 10 | 96 | – |
| NS(=O)(=O)OC[C@H]1C[C@@H](Nc2ncncc2C(=O)c2cc(Cc3cccc(Cl)n3)cs2)C[C@@H]1O [I-71, [(1R,2S,4R)-4-{[5-({4-[(6-chloropyridin-2-yl)methyl]-2-thienyl}carbonyl)pyrimidin-4-yl]amino}-2-hydroxycyclopentyl]methyl sulfamate] | 98 | – | – | – |
